# Laboratory results published in a melting point compilation (Tetko et al.).
row,melting point [°C],Structure (SMILES)
1,55 to 57,Cc1cccc(OCCCCC(=O)O)c1
2,109 to 111,CCNC(=O)COc1ccc(C=O)cc1OC
3,199 to 201,Nc1ccc(CCC(=O)O)cn1
4,85 to 87,COCc1cc(C(=O)O)no1
5,257 to 259,CC(C)CC(=O)Nc1ccc(C(=O)O)cc1F
6,205 to 210,Cc1nn(-c2ccc(F)cc2)c2sc(C(=O)O)cc12
7,179 to 181,CNS(=O)(=O)c1cc(Br)cnc1N
8,171 to 173,COc1ccc(N2CC(C(=O)O)CC2=O)cc1 (stereo not given)
9,75 to 77,COC(=O)c1ccc2ccccc2c1O
10,84 to 86,CC(C)(C)OC(=O)N(CC(=O)O)c1ccccc1
11,142 to 144,O=C(CCl)Nc1cc2c(cc1[N+](=O)[O-])OCO2
12,203 to 205,O=C(O)c1cnn2cccnc12
13,118 to 120,CCOC(=O)c1c(N)sc(C(=O)OCCOC)c1C
14,196 to 198,COC1CCN(C(=O)Nc2cccc(C(=O)O)c2)CC1
15,165 to 167,O=C(O)c1nc(NCc2ccccc2)ncc1Cl
16,130 to 135,CS(=O)c1ccccc1C(=O)O (stereo not given)
17,128 to 130,Cc1cc(NC(=O)CCl)n(-c2ccc(F)cc2)n1
18,231 to 233,Cn1cc(C(=O)O)c(-c2ccc(F)cc2F)n1
19,154 to 156,CC(C)(C)OC(=O)Nc1ccccc1C(=O)O
20,90 to 92,COc1ccc(S(=O)(=O)Cl)c(C)c1F
21,205 to 207,Nc1ccc(C(=O)N2CCOCC2)c(Cl)c1
22,145 to 147,COC(=O)C(=O)CC(=O)c1cc(F)ccc1F
23,235 to 237,Cc1c(C(=O)O)sc2ccsc12

row,melting point [°C],Structure (SMILES)
1,139 to 141,C/C(=N\O)c1ccc(-c2ccc(F)cc2)s1
2,90 to 92,CC(C)(C)OC(=O)N(CC(=O)O)C1CC1
3,179 to 181,COc1ccsc1C(=O)O
4,117 to 119,O=C(O)CSc1ccc(Br)cc1
5,269 to 271,O=C(O)CCCc1nc2ccccc2c(=O)[nH]1
6,181 to 183,C#Cc1ccc(C(=O)O)nc1
7,65 to 67,CN(C)S(=O)(=O)c1cccc(CO)c1
8,139 to 141,Cc1cccc(NC(=O)N2CCCC(C(=O)O)C2)c1 (stereo not given)
9,135 to 137,COc1cc(C(=O)O)cc(N)c1OC
10,109 to 111,O=C(CCl)c1ccc2c(c1)COC2
11,103 to 105,CCn1c(S)nnc1-c1cccs1
12,218 to 220,O=C(O)c1ccc(CS(=O)(=O)C(F)F)cc1
13,143 to 145,O=C(O)CCn1cc([N+](=O)[O-])cn1
14,103 to 105,O=C(O)C1=CCCSC1
15,79 to 81,CC(=O)Nc1ccc(N)c(Br)c1
16,134 to 136,CCn1nc(C)c(C(=O)O)c1C(F)F
17,201 to 203,COc1ccc(-c2ccc(C(=O)O)c(F)c2)cc1
18,84 to 86,Cc1cc(C)c(S(=O)(=O)N2CCCC2C(=O)O)c(C)c1 (stereo not given)
19,190 to 192,Cc1cc(O)nc(C2CC2)n1
20,154 to 156,CCN(CC)C(=O)c1ccc(N)cc1Cl
21,154 to 156,Cc1cc(N2CCNC(=O)C2)ccc1CN
22,208 to 210,COC(=O)c1c[nH]c2ncccc12
23,106 to 108,O=C(O)COc1ccc(F)c(Cl)c1

row,melting point [°C],Structure (SMILES)
1,167 to 169,O=C(O)CNC(=O)c1ccccn1
2,141 to 143,Cc1ccc2c(c1)C(=O)N(C(C)C(=O)O)C2=O (stereo not given)
3,83 to 85,CCc1ccc(N)c(C(=O)OC)c1
4,117 to 119,Cc1cccc(C(=O)NC(C)C(=O)O)c1 (stereo not given)
5,108 to 110,CCc1cc(C(=O)O)sc1C
6,319 to 321,CNC(=O)c1cnc(C)[nH]c1=O
7,89 to 91,CC(=O)Nc1ccc(S(=O)(=O)Cl)cc1[N+](=O)[O-]
8,174 to 176,Cc1oc(-c2ccccc2F)nc1C(=O)O
9,146 to 148,O=C(O)[C@@H]1CCCN1C(=O)NCc1cccc(Br)c1
10,95 to 97,COc1cc2ncn(CCC(=O)O)c(=O)c2cc1OC
11,60 to 62,O=C(O)C1(Cc2cccc(Cl)c2)CCCC1
12,155 to 157,Cc1ccc(OCCC(=O)O)cc1C
13,186 to 188,CC(Cl)C(=O)c1ccc2c(c1)NC(=O)CO2 (stereo not given)
14,166 to 168,O=C(O)Cc1coc(-c2ccc(F)cc2)n1
15,89 to 91,Cc1cc(C#N)ccc1O
16,140 to 142,CCOc1c(Br)cc(C(=O)O)cc1OC
17,174 to 176,CN(c1ccc(F)cc1)S(=O)(=O)c1ccc(Cl)c(C(=O)O)c1
18,304 to 306,O=C(O)c1cc(O)nc2ccc(S(=O)(=O)N3CCOCC3)cc12
19,114 to 116,Cc1cc(C(=O)O)c(C)s1
20,144 to 146,Cc1ccc(OCC(=O)O)c(C=O)c1
21,120 to 122,CCc1cccc(N2CC(C(=O)O)CC2=O)c1 (stereo not given)

# The remaining lines, values behind:
row,Structure (SMILES),melting point [°C]
1,O=c1[nH]cnc2c1CCCN2,258 to 260
2,CC(=CC(=O)O)c1ccccc1,93 to 95
3,Cc1nn(-c2ccccc2)cc1C=O,58 to 60
4,COc1ccc(NC(=O)c2ccccc2N)cn1,129 to 131
5,CC(C)c1ccc(NC(=S)NN)cc1,179 to 181
6,Cc1nc(-c2ccc(C(C)N)cc2)cs1 (stereo not given),74 to 76
7,CC(C)CC(C)n1nccc1N (stereo not given),55 to 57
8,O=C(NC1CC1)c1cc(Cl)nc2ccccc12,190 to 193
9,O=Cc1cc(-c2ccccc2)ccc1O,99 to 101
10,CC1CCC(C(C)C)C(OC(=O)CCl)C1 (stereo not given),65 to 66
11,N#Cc1cccc(CS(=O)(=O)NN)c1,139 to 141
12,O=CC1=C(N2CCOCC2)C(=Cc2ccccc2)CC1,141 to 143
13,NNc1ccc(S(=O)(=O)N2CCCC2)cn1,164 to 166
14,Cc1ccc(NC2C=CS(=O)(=O)C2)cc1 (stereo not given),115 to 117
15,NC(=O)c1csc(C(=O)CCl)c1,175 to 177
16,Cc1ccccc1OCCCC(=O)Nc1ccc(CN)cc1,82 to 84
17,CC(Cl)C(=O)Nc1ncccn1 (stereo not given),148 to 150
18,CC(C)(C)n1ncc(Cl)c(Cl)c1=O,64 to 66
19,O=C1C=CC(=O)N1c1cnccn1,116 to 118
20,Cc1nnc(CO)o1,129 to 131
21,CS(=O)(=O)CC1(CBr)CC1,50 to 52
22,c1ccc2c(c1)NCCCS2,22 to 24
23,NC(=O)c1ccc(CCl)cc1,178 to 180
24,NNC(=O)COc1ccccc1O,152 to 154
25,NNc1ccc(S(=O)(=O)NC2CC2)cc1,134 to 136
26,CC1(c2ccc(C#N)cc2)NC(=O)NC1=O (stereo not given),209 to 211

row,Structure (SMILES),melting point [°C]
1,Cn1ncnc1-c1cccc(N)c1,93 to 95
2,CN1CCC(O)(c2ccccc2)CC1,111 to 113
3,Nc1cc(S(=O)(=O)Nc2ccccc2Cl)ccc1Cl,89 to 93
4,Nc1ccnc(OC2CCCCC2)c1,114 to 116
5,CC(C)(C)NCC(N)=O,49 to 51
6,CCN1CCCC1CNS(=O)(=O)c1ccc(N)cc1 (stereo not given),101 to 103
7,CC1(C)NC(=O)c2ccccc2O1,131 to 133
8,CCOc1ccc(C2(O)CCCC2)cc1,88 to 90
9,O=C(O)CCS(=O)(=O)Nc1ccccc1,127 to 129
10,CC1CN(Cc2ccccc2N)CC(C)O1 (stereo not given),93 to 95
11,Cc1cc2ncn(C(C)C(N)=S)c2cc1C (stereo not given),204 to 206
12,Nc1nnc(-c2cccc([N+](=O)[O-])c2)o1,256 to 258
13,CC(C)(CN)C(N)=O,72 to 74
14,O=C1CC(c2ccccc2)C(=O)N1 (stereo not given),72 to 74
15,NC(=S)Cc1cccc(F)c1,69 to 71
16,N#CCc1c[nH]c2cc(F)ccc12,52 to 54
17,N#CCc1cccc(C#N)c1,78 to 80
18,O=c1[nH]c(CCl)nc2cc(-c3ccc(Cl)cc3)sc12,217 to 219
19,O=C(CCl)c1c(-c2ccc(F)cc2)[nH]c2ccccc12,158 to 160
20,NCc1cccc(NC(=O)c2ccccn2)c1,74 to 76
21,Cn1ccnc1C(N)c1ccc(Cl)cc1 (stereo not given),45 to 49
22,NC(=O)C1CCOC1 (stereo not given),109 to 111
23,C=CS(=O)(=O)c1ccc(C(C)(C)C)cc1,91 to 93
24,O=C1CCc2cc(Br)c(S(=O)(=O)Cl)cc2N1,224 to 226
25,COc1ccc(C(O)c2ccc(OC)cc2C)cc1 (stereo not given),71 to 73
26,COc1cccc(-c2noc(Cl)n2)c1,56 to 58

row,Structure (SMILES),melting point [°C]
1,Nc1ccccc1C(=O)Nc1ccc2c(c1)OCCO2,117 to 119
2,O=C(CCC1CCCO1)NC1CCC(C(=O)O)CC1 (stereo not given),199 to 201
3,COC(=O)c1ccc(C(Br)Br)cc1,42 to 45
4,O=C(CCCl)NCC(=O)c1ccccc1,120 to 122
5,CC(N)c1ccc(-c2cccnc2)cc1 (stereo not given),47 to 49
6,Nc1cnncc1Cl,79 to 81
7,N#Cc1cnn(-c2nccs2)c1N,165 to 167
8,NS(=O)(=O)c1ccc2c(c1)CCCN2,161 to 163
9,Cc1oc2nc(CCl)nc(N)c2c1C,179 to 181
10,CC(C)(C)OC(=O)N1CC(O)CC1C(=O)O (stereo not given),145 to 147
11,O=[N+]([O-])c1c(F)ccc2ncccc12,84 to 86
12,O=S(=O)(Nc1nc2ccccc2nc1Cl)c1ccccc1,172 to 174
13,N#Cc1ccccc1Oc1ccc(N)cc1F,119 to 121
14,O=C(O)C1CC(=O)N(c2ccc(S(=O)(=O)Cl)cc2)C1 (stereo not given),157 to 159
15,Cn1ccc(N2CCCC(Br)C2=O)n1 (stereo not given),104 to 106
16,Fc1ccc(NCc2cccnc2)cc1,89 to 91
17,O=Cc1ccc(Sc2ncccn2)c([N+](=O)[O-])c1,100 to 102
18,CSc1ccc(NC(=O)C(C)Cl)cc1 (stereo not given),129 to 131
19,OCc1ccncc1Cl,118 to 120
20,COc1ccc(C)cc1-c1csc(N)n1,205 to 207
21,CC1CCCN(Cc2csc(N)n2)C1 (stereo not given),136 to 138
22,Nc1nc2c(F)c(F)ccc2s1,49 to 51
23,O=C(O)C1(O)CCCCC1,102 to 104
24,Cc1cc2ccccc2nc1Br,94 to 96
25,Cc1cc(C=O)c(C)n1CCN1CCOCC1,79 to 81
26,CCOc1cc(C=CC(=O)O)ccc1OCCOc1ccccc1,187 to 189
